The target of this experiment is T1, wt human TYK2, catalytic site (Homo sapiens, UniProt P29597).
T1 construct: wt human TYK2, catalytic site; purchased SignalChem
T1 sequence (P29597 897-1176 limits assumed): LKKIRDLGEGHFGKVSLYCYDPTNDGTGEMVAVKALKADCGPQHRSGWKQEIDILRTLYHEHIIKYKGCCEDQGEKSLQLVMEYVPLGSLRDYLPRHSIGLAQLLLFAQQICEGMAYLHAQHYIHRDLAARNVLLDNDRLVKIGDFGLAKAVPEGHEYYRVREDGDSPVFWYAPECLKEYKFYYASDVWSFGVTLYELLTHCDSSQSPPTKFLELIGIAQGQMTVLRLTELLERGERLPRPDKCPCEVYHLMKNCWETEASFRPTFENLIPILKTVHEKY
Briefly: HTRF KinEASE assay, TYK2. It counts as biochemical. The conditions noted are these: 1 μM ATP; read-out: IC50, Activity Toward TYK2. As to the method: Basic protocol for HTRF KinEASE assay (Cisbio/FRA) inhibitor studies involved two steps: • Enzymatic step: Addition of 4 μL of test compound in corresponding DMSO dilutions, 4 μL of kinase/substrate mixture, 2 μL of ATP into 384 well small volume plates. Incubation for at least 30 minutes at room temperature. • Detection step: Addition of 5 μL antibody and 5 μL streptavidin-XL665, read plate after 60 minutes. Data analysis of emission ratios according KinEASE assay protocol.
(§1) Kinase and assay components were adjusted to final concentrations according to kit protocol. For TYK2: 2 nM wt human TYK2, catalytic site (SignalChem/CAN), 1 μM HTRF KinEASE-TK Substrate-biotin, 1 μM ATP in 1× Kinase Buffer. For JAK1: 4 nM wt human JAK1, catalytic site (ThermoFisher/USA), 1 μM HTRF KinEASE-TK Substrate-biotin, 2.5 μM ATP in 1× Kinase Buffer. For JAK2: 1 nM wt human JAK2, catalytic site (SignalChem/CAN), 1 μM HTRF KinEASE-TK Substrate-biotin, 100 μM ATP in 1× Kinase Buffer.
as §1
(TR-FRET usually uses a lanthanide donor and a delayed reading to cut background.)
Usually IC50 stands for the concentration that inhibits the measured activity by half. Consider `Cc1cc(Nc2cn(-c3ccccc3F)nc2C(N)=O)ncn1` [compound 5, 1-(2-fluorophenyl)-4-((6-methylpyrimidin-4-yl)amino)-1H-pyrazole-3-carboxamide], for which the IC50 was in the range of 100 to 1000 nM.

Take `NC(=O)c1nn(-c2c(F)cccc2F)cc1Nc1ccc(N)cn1` [compound 6, 4-((5-aminopyridin-2-yl)amino)-1-(2,6-difluorophenyl)-1H-pyrazole-3-carboxamide]: the IC50 lay within 100 to 1000 nM.

`NC(=O)c1nn(-c2c(Cl)cccc2Cl)cc1Nc1ccccc1` [compound 21, 1-(2,6-dichlorophenyl)-4-(phenylamino)-1H-pyrazole-3-carboxamide]: the IC50 was in the range of 100 to 1000 nM.

For the molecule `CCNC(=O)c1ccc(Nc2cn(-c3c(F)cccc3F)nc2C(N)=O)cn1` [compound 24, 5-((3-carbamoyl-1-(2,6-difluorophenyl)-1H-pyrazol-4-yl)amino)-N-ethylpicolinamide], the IC50 was 100 to 1000 nM.

For the molecule `CCNC(=O)c1ccc(Nc2cn(-c3c(F)cccc3OC)nc2C(N)=O)cn1` [compound 25, 5-((3-carbamoyl-1-(2-fluoro-6-methoxyphenyl)-1H-pyrazol-4-yl)amino)-N-ethylpicolinamide], the IC50 was 100 to 1000 nM.

As to `NC(=O)c1nn(-c2c(Cl)cccc2Cl)cc1Nc1ccc(-n2nnc3ccccc32)cc1` [compound 81, 4-((4-(1H-benzo[d][1,2,3]triazol-1-yl)phenyl)amino)-1-(2,6-dichlorophenyl)-1H-pyrazole-3-carboxamide], the IC50 was in the range of 100 to 1000 nM.

Turning to `NC(=O)c1nn(-c2c(Cl)cccc2Cl)cc1Nc1ccc(-n2c(=O)sc3ccccc32)cc1` [compound 201, 1-(2,6-dichlorophenyl)-4-((4-(2-oxobenzo[d]thiazol-3(2H)-yl)phenyl)amino)-1H-pyrazole-3-carboxamide], the IC50 fell in the range of 100 to 1000 nM.

`NC(=O)c1nn(-c2c(Cl)cccc2Cl)cc1Nc1ccc(-n2nc3c(c2C(F)(F)F)CCCC3)cc1` [compound 236, 1-(2,6-dichlorophenyl)-4-((4-(3-(trifluoromethyl)-4,5,6,7-tetrahydro-2H-indazol-2-yl)phenyl)amino)-1H-pyrazole-3-carboxamide]: the IC50 was in the range of 100 to 1000 nM.

As to `Cc1cc(C(F)(F)F)nn1-c1ccc(Nc2cn(-c3c(Cl)cccc3Cl)nc2C(N)=O)cc1` [compound 257, 1-(2,6-dichlorophenyl)-4-((4-(5-methyl-3-(trifluoromethyl)-1H-pyrazol-1-yl)phenyl)amino)-1H-pyrazole-3-carboxamide], the IC50 lay in the range of 100 to 1000 nM.

For the molecule `CC(C)c1nc(C(F)(F)F)nn1-c1ccc(Nc2cn(-c3c(Cl)cccc3Cl)nc2C(N)=O)cc1` [compound 274, 1-(2,6-dichlorophenyl)-4-((4-(5-isopropyl-3-(trifluoromethyl)-1H-1,2,4-triazol-1-yl)phenyl)amino)-1H-pyrazole-3-carboxamide], the IC50 lay in the range of 100 to 1000 nM.

Turning to `CCn1nc(C(F)(F)F)nc1-c1ccc(Nc2cn(-c3c(Cl)cccc3Cl)nc2C(N)=O)cc1` [compound 278, 1-(2,6-dichlorophenyl)-4-((4-(1-ethyl-3-(trifluoromethyl)-1H-1,2,4-triazol-5-yl)phenyl)amino)-1H-pyrazole-3-carboxamide], the IC50 lay in the range of 100 to 1000 nM.

Turning to `CCCc1nc(C(F)(F)F)nn1-c1ccc(Nc2cn(-c3c(Cl)cccc3Cl)nc2C(N)=O)cc1` [compound 279, 1-(2,6-dichlorophenyl)-4-((4-(5-propyl-3-(trifluoromethyl)-1H-1,2,4-triazol-1-yl)phenyl)amino)-1H-pyrazole-3-carboxamide], the IC50 was 100 to 1000 nM.

With `CC(C)n1nc(C(F)(F)F)nc1-c1ccc(Nc2cn(-c3c(Cl)cccc3Cl)nc2C(N)=O)cc1` [compound 280, 1-(2,6-dichlorophenyl)-4-((4-(1-isopropyl-3-(trifluoromethyl)-1H-1,2,4-triazol-5-yl)phenyl)amino)-1H-pyrazole-3-carboxamide], the IC50 fell in the range of 100 to 1000 nM.

In the case of `CCn1nc(C(F)(F)F)nc1-c1ccc(Nc2cn(-c3c(F)cccc3Cl)nc2C(N)=O)cc1` [compound 289, 1-(2-chloro-6-fluorophenyl)-4-((4-(1-ethyl-3-(trifluoromethyl)-1H-1,2,4-triazol-5-yl)phenyl)amino)-1H-pyrazole-3-carboxamide], the IC50 is 100 to 1000 nM.

Turning to `NC(=O)c1nn(-c2c(Cl)cccc2Cl)cc1Nc1ccc(-c2nc(C(F)(F)F)cn2C2COC2)cc1` [compound 301, 1-(2,6-dichlorophenyl)-4-((4-(1-(oxetan-3-yl)-4-(trifluoromethyl)-1H-imidazol-2-yl)phenyl)amino)-1H-pyrazole-3-carboxamide], the IC50 was less than 10 nM.

`CN(C)CCn1cc(C(F)(F)F)nc1-c1ccc(Nc2cn(-c3c(Cl)cccc3Cl)nc2C(N)=O)cc1` [compound 306, 1-(2,6-dichlorophenyl)-4-((4-(1-(2-(dimethylamino)ethyl)-4-(trifluoromethyl)-1H-imidazol-2-yl)phenyl)amino)-1H-pyrazole-3-carboxamide]: the IC50 fell in the range of 10 to 100 nM.

Take `CCCn1cc(C(F)(F)F)nc1-c1ccc(Nc2cn(-c3c(Cl)cccc3Cl)nc2C(N)=O)cc1` [compound 311, 1-(2,6-dichlorophenyl)-4-((4-(1-propyl-4-(trifluoromethyl)-1H-imidazol-2-yl)phenyl)amino)-1H-pyrazole-3-carboxamide]: the IC50 was in the range of 100 to 1000 nM.

`COCc1nc(C(F)(F)F)nn1-c1ccc(Nc2cn(-c3c(Cl)cccc3Cl)nc2C(N)=O)cn1` [compound 328, 1-(2,6-dichlorophenyl)-4-((6-(5-(methoxymethyl)-3-(trifluoromethyl)-1H-1,2,4-triazol-1-yl)pyridin-3-yl)amino)-1H-pyrazole-3-carboxamide]: the IC50 is 100 to 1000 nM.

For `CCc1nc(C(F)(F)F)nn1-c1ccc(Nc2cn(-c3c(Cl)cccc3Cl)nc2C(N)=O)cn1` [compound 329, 1-(2,6-dichlorophenyl)-4-((6-(5-ethyl-3-(trifluoromethyl)-1H-1,2,4-triazol-1-yl)pyridin-3-yl)amino)-1H-pyrazole-3-carboxamide], the IC50 fell in the range of 100 to 1000 nM.

As to `NC(=O)c1nn(-c2c(Cl)cccc2Cl)cc1Nc1ccc(-n2cncn2)nc1` [compound 337, 4-((6-(1H-1,2,4-triazol-1-yl)pyridin-3-yl)amino)-1-(2,6-dichlorophenyl)-1H-pyrazole-3-carboxamide], the IC50 was 100 to 1000 nM.

In the case of `CCn1cc(C(F)(F)F)nc1-c1ccc(Nc2cn(-c3c(Cl)cccc3Cl)nc2C(N)=O)cn1` [compound 339, 1-(2,6-dichlorophenyl)-4-((6-(1-ethyl-4-(trifluoromethyl)-1H-imidazol-2-yl)pyridin-3-yl)amino)-1H-pyrazole-3-carboxamide], the IC50 lay within 100 to 1000 nM.

Turning to `CCc1ncnn1-c1ccc(Nc2cn(-c3c(Cl)cccc3Cl)nc2C(N)=O)cn1` [compound 343, 1-(2,6-dichlorophenyl)-4-((6-(5-ethyl-1H-1,2,4-triazol-1-yl)pyridin-3-yl)amino)-1H-pyrazole-3-carboxamide], the IC50 lay in the range of 100 to 1000 nM.

As to `NC(=O)c1nn(-c2c(Cl)cccc2Cl)cc1Nc1ccc(N2CCCC2=O)nc1` [compound 345, 1-(2,6-dichlorophenyl)-4-((6-(2-oxopyrrolidin-1-yl)pyridin-3-yl)amino)-1H-pyrazole-3-carboxamide], the IC50 lay in the range of 100 to 1000 nM.

Regarding `Cc1cc(Nc2cn(-c3c(Cl)cccc3Cl)nc2C(N)=O)cnc1-n1cccn1` [compound 346, 1-(2,6-dichlorophenyl)-4-((5-methyl-6-(1H-pyrazol-1-yl)pyridin-3-yl)amino)-1H-pyrazole-3-carboxamide], the IC50 lay in the range of 100 to 1000 nM.

In the case of `NC(=O)c1nn(-c2c(Cl)cccc2Cl)cc1Nc1ccc(C(=O)N2CC[C@H](N)C2)cn1` [compound 368, (S)-4-((5-(3-aminopyrrolidine-1-carbonyl)pyridin-2-yl)amino)-1-(2,6-dichlorophenyl)-1H-pyrazole-3-carboxamide], the IC50 lay in the range of 100 to 1000 nM.

As to `NC(=O)c1nn(-c2c(Cl)cccc2Cl)cc1Nc1ccc(C(=O)N2CC(F)(F)C(F)(F)C2)cn1` [compound 369, 1-(2,6-dichlorophenyl)-4-((5-(3,3,4,4-tetrafluoropyrrolidine-1-carbonyl)pyridin-2-yl)amino)-1H-pyrazole-3-carboxamide], the IC50 lay within 100 to 1000 nM.

`CCOc1cccc(Cl)c1-n1cc(Nc2cnn(C)c2)c(C(N)=O)n1` [compound 372, 1-(2-chloro-6-ethoxyphenyl)-4-((1-methyl-1H-pyrazol-4-yl)amino)-1H-pyrazole-3-carboxamide]: the IC50 fell in the range of 100 to 1000 nM.

Turning to `Cc1cccc2[nH]nc(-c3ccc(Nc4cn(-c5c(Cl)cccc5Cl)nc4C(N)=O)cn3)c12` [compound 427, 1-(2,6-dichlorophenyl)-4-((6-(4-methyl-3H-indazol-3-ylidene)-1,6-dihydropyridin-3-yl)amino)-1H-pyrazole-3-carboxamide], the IC50 is 100 to 1000 nM.

Take `Cn1nnc(-c2ccc(Nc3cn(-c4c(Cl)cccc4Cl)nc3C(N)=O)nc2)n1` [compound 434, 1-(2,6-dichlorophenyl)-4-((5-(2-methyl-2H-tetrazol-5-yl)pyridin-2-yl)amino)-1H-pyrazole-3-carboxamide]: the IC50 was in the range of 100 to 1000 nM.

(Values after patent US20230373985A1 (Origenis Gmbh, priority 2020, published 2023).)
